Measurements reported in patent US8178579B2, “Dioxanes and uses thereof” (President and Fellows of Harvard College, priority 2001, dated 2012).
Entries after “also recorded” stand apart in the source; their conditions may differ. Where two headings read alike, the source gives them in different places.

Tests used:
[1] = tested on: mouse embryonic stem cells; assay: genome-wide transcriptional profiling (U74Av2 chip); type: cell-based; conditions: TSA 300 nM, tubacin 2 μM
Experimental: Gene expression analysis of tubacin, TSA, and DMSO-treated mouse embryonic stem cells were performed according to the Affymetrix protocol using an U74Av2 chip as described in full (K. M. Koeller et al., Chemistry & Biology, 10 (5) (2003) pp. 397-410). Present calls were determined by accompanying software and data analysis, including array normalization and clustering, performed using dChip software [C. Li and W. H. Wong, Genome Biol. 2, 32 (2001); and E. E. Schadt, C. Li, B. Ellis and W. H. Wong, J. Cell Biochem. Suppl. 37, 120 (2001)].

[2] = tested on: A549 cells; assay: cell cycle (BrdU labeling, FACS) and cell morphology; type: cell-based, human; conditions: for effect on cell cycle / DNA synthesis: FACS: 4 h, TSA 300 nM, tubacin 2 μM
Experimental: Bromodeoxyuridine labeling and fluorescence-activated cell sorting (FACS) were performed as described (K. M. Koeller et al., Chemistry & Biology, 10 (5) (2003) pp. 397-410). […] Samples were rinsed in PBS, trypsinized, and fixed for two hours in 70% ethanol/30% PBS (4° C.). Cells were then washed once in PBS and stored overnight in PBS (4° C.). To measure acetylated tubulin levels, samples were blocked for 45 minutes in ADB, aspirated, and incubated in ADB with anti-acetylated tubulin (1:500) overnight (4° C.). Samples were washed twice in ADB and incubated in ADB with FITC-conjugated anti-mouse IgG (goat; 1:200) for one hour (room temperature). After washing twice in TBS, cells were resuspended in 100 μL of ribonuclease A (100 μg/mL) and incubated for five minutes (37° C.). To measure the DNA content, 400 μL of propidium iodide (50 μg/mL) was added to the samples and incubated for one hour (room temperature). Samples were analyzed using a FACScanII flow cytometer (Becton-Dickinson), at the Dana Farber Cancer Institute, exciting at 488 nm and measuring the acetylated tubulin-linked FITC fluorescence through a 514 nm bandpass filter and the PI fluorescence through a 600 nm wave-length filter. Cell cycle distributions were calculated from 10,000 cells and modeled using ModFit LT (V2.0) software.

[3] = tested on: A549 cells; assay: mitotic abnormalities by immunofluorescence; type: cell-based, human; conditions: 18 h or 24 h treatment, TSA 10 μM in FIG. 42C
Experimental: Detection of acetylated α-tubulin and acetylated histones by immunofluorescence was performed as described in Example 6 above. For determining microtubule stability, A549 cells were treated as indicated, fixed in glutaraldehyde, and stained for acetylated α-tubulin and total α-tubulin in antibody dilution buffer (ADB, Tris-buffered saline (TBS), 0.15 M NaCl, 0.02 M Tris-Cl, pH 7.4, with 2% bovine serum albumin and 0.1% Triton-X 100). For cold-depolymerization, cells were incubated at 4° C. or 37° C. for an additional 90 minutes before fixation. For calcium depolymerization, cells were incubated at 37° C. for 10 minutes in a microtubule-stabilizing buffer (0.2% NP-40, 5 mM MgCl2, 2 mM EGTA, 2 M glycerol, 100 mM PIPES, pH 6.8) with and without the addition of CaCl2 (2 mM) before glutaraldehyde fixation. For co-localization experiments, biotubacin (50 μM) treated A549 cells were fixed in 3.7% formaldehyde in TBS and processed as for detecting acetylated α-tubulin (See Example 6 above) with biotubacin detected using streptavidin-TR (1:500). HDAC6 was detected using a rabbit polyclonal antibody (1:250-1:750; C.M.G., unpublished data) under the conditions used to detect acetylated α-tubulin (See Example 6 above). Filamentous actin in HT-1080 cells was detected using TR-conjugated phalloidin (1 μg/mL), and depolymerized actin using FITC-conjugated deoxyribonuclease (10 μg/mL), following fixation in 3.7% formaldehyde in TBS. p58 (1:100) in NIH-3T3 cells was detected after fixation in 3.7% formaldehyde in TBS. Images for these experiments were collected on a Zeiss LSM510 confocal scanning laser microscope at the appropriate wavelengths using the accompanying software and processed with Adobe Photoshop. Deconvoluted serial images of TSA and DMSO treated A549 cells were obtained by taking sections (8μ) on a Zeiss Axioskop 2 microscope using an AxioCam camera and the accompanying software. Rat hippocampal neuronal cultures were fixed at room temperature for 15 min in phosphate-buffered saline (PBS) containing 4% paraformaldehyde. […]

SMILES | number of genes with altered expression above a 1.3-fold threshold [1] | effect on cell cycle / DNA synthesis [2] | mitotic abnormalities [3] | effect on cell morphology [2] | effect on cell cycle / DNA synthesis ([2]; listed as JCWII114) | effect on cell morphology ([2]; listed as JCWII114)
CC(/C=C/C(=O)NO)=C\[C@@H](C)C(=O)c1ccc(N(C)C)cc1 [TSA, trichostatin A, reference compound] | 232 genes | marked loss of a BrdU-positive S-phase population | Mitotic abnormalities in A549 cells induced by TSA; also recorded: caused a significant number of abnormal mitotic cells | – | – | –
O=C(CCCCCCC(=O)Nc1ccc([C@@H]2OC(c3ccc(CO)cc3)C[C@H](CSc3nc(-c4ccccc4)c(-c4ccccc4)o3)O2)cc1)NO (stereo partly drawn) [tubacin] | no genes showed a significant alteration in expression | No effect of tubacin on DNA synthesis or cell cycle distribution; also recorded: had no such effects | did not increase the frequency of mitotic abnormalities; also recorded: had neither an effect on the number of mitotic cells nor spindle morphology | had no overall effect on the morphology of A549 cells | no apparent affect on the cell cycle or on cell morphology | no apparent affect on the cell cycle or on cell morphology
